Test results from patent publication US11318206B2, “Compounds and methods for trans-membrane delivery of molecules” (Aposense Ltd., priority 2014, dated 2022).
“Also recorded” adds a separate entry of the source.

How the values were obtained:
[1] = Stability under oligonucleotide de-protection conditions, HPLC/MS; format: physicochemical; conditions: ammonium hydroxide at 65° C., samples at 15 minutes, 1 and 2 hours
Text: Synthesis of the Conjugates of the Invention customarily involves protecting the nucleobases of the synthesized oligonucleotides by chemical groups. For example, adenine is often protected by a benzoyl protecting group, guanine by isobutyryl, and cytosine by acetyl. These protecting groups should be removed at the end of synthesis, in order to obtain a functional oligonucleotide. This removal is customarily performed in strong basic conditions. For example, the standard protocol of IDT (Iowa, USA) for removal of the protecting groups during synthesis of oligonucleotides comprises incubation with ammonium hydroxide at 65° C. degrees, for 2 hours. In order to evaluate whether the Compound of the Invention can sustain de-protection in these harsh conditions, a model system was constructed, based on the following Model Compound A, having the following structure:
Two mg of this compound were incubated in the above standard conditions used for deprotection. Samples were drawn after 15 minutes, 1 and 2 hours incubation, and evaluated by HPLC/MS, exploring and analyzing the formation of new peaks. […] Therefore, this analogue of the compound of the Invention manifested stability in these relatively harsh basic conditions.

C26 cells = test: Delivery of 58-mer dsDNA Conjugate into C26 cells, ELISA reader (Example 8); format: cell-based, murine; conditions: Cy3 58-mer dsDNA, two MNMs
Procedure: (§1) 3T3 cells and C26 cells were grown and prepared as described in Example 5 above. Cells were incubated for 1, 2, and 24 hours with a Conjugate comprising a 58-mer double-stranded (ds)DNA, linked to Cy3 fluorophore, and lined to two Apo-Si—C4 moieties. Two concentrations of the Conjugate were tested: 40 nM and 100 nM. Analysis comprised fluorescent microscopy and signal quantification by ELISA reader, as described in Example 5 above. An identical 58-mer dsDNA, not linked to E moieties, served as Control.

3T3 cells = test: Delivery of 58-mer dsDNA Conjugate into 3T3 cells, ELISA reader (Example 8); format: cell-based, murine; conditions: Cy3 58-mer dsDNA, two MNMs
Procedure: as §1

EGFP gene = EGFP gene silencing in primary culture of hepatocytes of transgenic mice; format: cell-based, mouse; conditions: EGFP dsRNA, two MNMs, complex with Histone H2A (2:1 Histone/RNA); 40 nM; 72 hours
Procedure: Double-stranded RNA sequence, as specified in Example 7 was attached to two MNMs according to Formula (VIIa), wherein a=2, and k=1, designated Apo-Si—C4. The conjugate (40 nM) was then incubated with the histone 2A protein (Histone H2A, Molecular Weight 14 kDa; New England Biolabs, Inc.) for 30 minutes (at a 2:1 Histone/RNA ratio) for generation of RNA+MNM+protein complex. The complex was then incubated with cells of primary culture of hepatocytes of transgenic mice, expressing the EGFP gene. After 72 hours, fluorescence of the EGFP signal was quantified utilizing an ELISA reader, as described in Example 7. […] As evident from the results, this complex was capable of effectively crossing the cell membranes, and moreover, exerting a beneficial biological performance in gene silencing. By comparison to the performance of the Control complex, which was devoid of MNMs, the observed results can be attributed solely to the MNMs of the invention.

3T3-EGFP cells [2] = test: Uptake of Conjugate into 3T3-EGFP cells with dipole potential modulators phloretin or 6-KC; format: cell-based, mouse
Text: Phloretin is an inhibitor of the membrane dipole potential and the related IMEF, while 6-keto-cholestanol (6-KC) is a potent enhancer of the IMEF). Therefore, a potential relationship between the effects of the dipole potential modulators phloretin or 6-KC, and the uptake level of the above Conjugate of the Invention (comprising the Apo-Si—C4 MNM, linked to dsDNA, of the sequence: Sense:/5′-MNM/TT/iCy3/[…] (SEQ ID. No. 9); Anti-sense:/5′-MNM/[…] (SEQ ID. No. 10); wherein Cy3 is a red fluorophore); was examined.
One day before the experiment, 3T3-EGFP cells in the exponential growth phase were plated in 6-well plates, at a density of 5×10^5 cells/well, with DMEM complete medium, without antibiotics. Cells were incubated with phloretin 750 μM at 37° C., or 6-KC 100 μM at 37° C., for one hour. The 6-KC was then washed away, while the phloretin was kept in the medium. The Conjugate as described above was diluted in 500 μl/well of Opti-Mem, and added to the above cells, at a final concentration of 40 nM for two hours. Delivery of the Conjugate was evaluated at 2 hours post transfection. At that time point, cells were trypsinized, supplemented with Hank's Buffered Salt Solution (HBSS buffer; Biological Industries, Israel) and centrifuged for 5 min at 1200 rpm. Cells were then re-suspended with Hank's Buffered Salt Solution, and subjected to analysis using FACSAria III Cell Sorter (BD Biosciences, San Jose, Calif., USA), utilizing the Cell Diva software. For each sample, a total of 10^4 events were collected.

3T3-EGFP cells [3] = test: Structure/function analysis of polarity: uptake into 3T3-EGFP cells, FACS; format: cell-based, mouse; conditions: Cy3 58-mer DNA conjugate, 40 nM
Procedure: For this purpose, two analogous Conjugates were constructed and evaluated: • (i). A Conjugate of dsDNA, linked to E and E′, each has the structure as set forth in Formula (VIIa); designated Apo-Si—C4: […]
Both these MNM moieties were linked to a 58-mer DNA oligonucleotide, labeled with the Cy3-fluorophore, and were subjected to FACS analysis.
One day before the experiment, 3T3-EGFP cells in the exponential growth phase were plated in 6-well plates, at a density of 0.2-0.5×10^5 cells/well, with DMEM complete medium, without antibiotics. Each of the Cy3-labeled oligonucleotides (with or without the MNMs) was diluted in 500 μl/well of Opti-Mem, and added to the cells, at a final concentration of 40 nM. Delivery of the Conjugates was evaluated at 2-24 hours of incubation. Following the incubation period, cells were trypsinized, supplemented with Hank's Buffered Salt Solution (HBSS buffer; Biological Industries, Israel) and centrifuged for 5 min at 1100 rpm. […] Detection and quantification of the Cy3-positive cell population were performed using measurements of the fluorescence intensity in the cells incubated with the Apo-Si-4C Conjugate, relative to that of the cells incubated with the Control A Conjugate.

| Structure (SMILES) | Degradation under de-protection conditions [1] | Ratio of signal intensity of the Conjugate versus control dsDNA devoid of MNMs (C26 cells; 40 nM) [fold] | Ratio of signal intensity of the Conjugate versus control dsDNA devoid of MNMs (C26 cells; 100 nM) [fold] | Ratio of signal intensity of the Conjugate versus control dsDNA devoid of MNMs (3T3 cells; 40 nM) [fold] | Ratio of signal intensity of the Conjugate versus control dsDNA devoid of MNMs (3T3 cells; 100 nM) [fold] | Reduction of the EGFP signal vs control complex without MNMs (EGFP gene) [%] | Uptake by cells after 6-keto-cholestanol (Cy3 fluorescence microscopy) (3T3-EGFP cells [2]; 40 nM, 2 hours, pre-incubation with 6-KC 100 μM for one hour) | Cells labeled (FACS) (3T3-EGFP cells [2]; Cy3 dsDNA, MNMs, 40 nM, 2 hours, no modulator) [%] | Cells manifesting binding of the Conjugate (FACS) (3T3-EGFP cells [2]; Cy3 dsDNA, MNMs, 40 nM, 2 hours, phloretin 750 μM) [%] | Uptake by cells after phloretin (flow cytometry) (3T3-EGFP cells [2]; pre-incubation with phloretin) | Cy3 fluorescent signal in cells (FACS) (3T3-EGFP cells [3]; 24 hours of incubation) | Cy3 fluorescent signal in cells (FACS) (3T3-EGFP cells [3]; two hours of incubation) |
| --- | --- | --- | --- | --- | --- | --- | --- | --- | --- | --- | --- | --- |
| CCCCCCN(C(=O)Oc1ccccc1)[C@H]1CCSSC1 [Compound A] | no signs of degradation | – | – | – | – | – | – | – | – | – | – | – |
| [2H]CCCCOc1ccc2c(c1)CCC1C2CCC2(C)C(OCCCOC(C(F)(F)F)(C(F)(F)F)C(F)(F)F)CCC12 (stereo not drawn) [Apo-Si—C4] | – | 80 | 72 | 104 | 101 | 76 | markedly higher uptake; also recorded: markedly increased uptake | 68 | 1.5 | marked reduction in the uptake | further augmented | strong Cy-3 fluorescent signal |
